Results published in patent US20210387973A1, “SUBSTITUTED HETEROCYCLIC COMPOUNDS AND THEIR USE AS RETINOID-RELATED ORPHAN RECEPTOR (ROR) GAMMA-T INHIBITORS” (Technische Universiteit Eindhoven, priority 2019, published 2021).
Where two headings read alike, the source gives them in different places. One block for each compound: values may come before it.

Columns and labels:
[1] = target: T1, His6-RORγt ligand binding domain (Homo sapiens, UniProt P51449); experiment: TR-FRET coactivator recruitment assay; type: biochemical; settings: for Dependence of coactivator recruitment inhibition on cholesterol: fixed concentrations of orthosteric agonist cholesterol
T1 sequence (P51449 269-508 limits assumed): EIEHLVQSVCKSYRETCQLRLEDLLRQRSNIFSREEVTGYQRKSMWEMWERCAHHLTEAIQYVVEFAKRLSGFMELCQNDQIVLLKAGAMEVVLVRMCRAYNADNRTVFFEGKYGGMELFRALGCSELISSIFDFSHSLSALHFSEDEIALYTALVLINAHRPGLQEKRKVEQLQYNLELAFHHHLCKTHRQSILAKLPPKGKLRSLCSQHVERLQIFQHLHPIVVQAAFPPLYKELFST
Method: In the present application the IC50 is determined according to a biochemical TR-FRET assay. […] A terbium labelled anti-His antibody (CisBio Bioassays, 61HISTLA) and D2-labelled streptavidin (CisBio Bioassays, 610SADLA) are used at the concentrations recommended by the supplier. Compounds (dissolved in DMSO) are titrated using a 2× dilution series in Corning white low volume, low binding, 384-well plates at a final volume of 10 μL The final DMSO concentration being 2% v/v throughout. […] The data is analyzed with Origin Software. The dose-response curve was fitted represented by:
Where y is the FRET ratio, A1 is the bottom asymptote, A2 is the top asymptote, p is the Hills slope and x is the ligand concentration.
The coactivator recruitment TR-FRET assay was performed in the presence of increasing fixed concentrations of cholesterol, a well characterized orthosteric agonist.
A terbium labelled anti-His antibody (CisBio Bioassays, 61HISTLA) and D2-labelled streptavidin (CisBio Bioassays, 610SADLA) were used at the concentrations recommended by the supplier. Compounds (dissolved in Dimethyl sulfoxide—DMSO) were titrated using a 2× dilution series from a highest final concentration of […] such that the final DMSO concentration was 2% v/v throughout.

[2] = target: T2, His6-RORγt (Homo sapiens, UniProt P51449); experiment: Allosteric ligand displacement assay (AlexaFluor 647 probe, FRET); type: binding
T2 sequence (P51449 1-497 isoform P51449-2): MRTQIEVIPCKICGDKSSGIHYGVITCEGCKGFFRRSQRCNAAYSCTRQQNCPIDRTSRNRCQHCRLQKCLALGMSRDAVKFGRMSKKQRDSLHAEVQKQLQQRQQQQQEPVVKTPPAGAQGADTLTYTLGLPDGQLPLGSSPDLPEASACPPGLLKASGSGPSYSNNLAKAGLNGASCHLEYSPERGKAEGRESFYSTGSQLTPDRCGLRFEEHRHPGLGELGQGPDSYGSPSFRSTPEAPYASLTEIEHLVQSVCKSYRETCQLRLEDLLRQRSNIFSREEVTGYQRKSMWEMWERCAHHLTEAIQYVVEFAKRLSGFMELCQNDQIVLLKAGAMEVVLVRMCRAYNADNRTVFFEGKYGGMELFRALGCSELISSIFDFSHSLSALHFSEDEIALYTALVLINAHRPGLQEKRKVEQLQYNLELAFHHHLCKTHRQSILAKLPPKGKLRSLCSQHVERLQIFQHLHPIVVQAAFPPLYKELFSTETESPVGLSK
Description: To provide further evidence for allosteric ligand binding we used an orthogonal assay to directly probe for allosteric ligand binding (as opposed to measuring the indirect effects on coactivator recruitment).

[3] = Table 2, cholesterol concentration of 0 μM, read-out: IC50

IC50 [1, 3]: 46.6 µM
SMILES: O=C(O)c1ccc(/N=C/c2c(-c3c(Cl)cccc3C(F)(F)F)noc2-c2cc[nH]c2)cc1 [AS89]

Hill slope ([1]; 0 μM Cholesterol): −0.45 ± 0.02
Hill slope ([1]; 0.1 μM Cholesterol): −0.74 ± 0.03
Hill slope ([1]; 1.0 μM Cholesterol): −0.86 ± 0.03
SMILES: O=C(O)c1ccc(NCc2c(-c3c(Cl)cccc3C(F)(F)F)noc2-c2cc[nH]c2)cc1 [Compound 1]
Dependence of coactivator recruitment inhibition on cholesterol [1]: independent of increasing concentrations of cholesterol

SMILES: C[C@H]1O[C@@H](O[C@H]2[C@@H](O)C[C@H](O[C@H]3[C@@H](O)C[C@H](O[C@H]4CC[C@@]5(C)[C@H](CC[C@@H]6[C@@H]5C[C@@H](O)[C@]5(C)[C@@H](C7=CC(=O)OC7)CC[C@]65O)C4)O[C@@H]3C)O[C@@H]2C)C[C@H](O)[C@@H]1O [Compound C, reference compound]
Hill slope ([1]; 0 μM Cholesterol): −0.53 ± 0.03
IC50 ([1]; 0 μM Cholesterol, read-out: IC50): 0.774 ± 0.0816 µM
Hill slope ([1]; 0.1 μM Cholesterol): −0.54 ± 0.02
IC50 ([1]; 0.1 μM Cholesterol, read-out: IC50): 5.47 ± 0.456 µM
Hill slope ([1]; 1.0 μM Cholesterol): −0.87 ± 0.04
IC50 ([1]; 1.0 μM Cholesterol, read-out: IC50): 32.4 ± 1.69 µM
IC50 ([1]; as listed beside probe competition (0 μM cholesterol values), read-out: Coactivator Recruitment IC50): 0.774 ± 0.0816 µM
Dependence of coactivator recruitment inhibition on cholesterol [1]: cholesterol-dependent activity profile
IC50 ([2]; displacement of Alexa Fluor 647 probe, read-out: AlexaFluor Probe Competition IC50): > 5 µM
IC50 ([2]; read-out: IC50 for displacement of the Alexa Fluor 647 probe): > 50 µM

IC50 [1, 3]: 8.2 µM
SMILES: O=C(O)c1ccc(-c2c(-c3c(Cl)cccc3C(F)(F)F)noc2-c2ccccc2)cc1 [GV020]

IC50 [1, 3]: 62.6 µM
SMILES: O=C(O)c1ccc(S(=O)(=O)Nc2c(-c3c(Cl)cccc3C(F)(F)F)noc2-c2ccccc2)cc1 [GV031]

IC50 [1, 3]: 30.9 µM
SMILES: O=C(O)c1ccc(CNc2c(-c3c(Cl)cccc3C(F)(F)F)noc2-c2ccccc2)cc1 [GV032]

IC50 [1, 3]: 9.6 µM
SMILES: O=C(O)c1ccc(NCc2c(-c3c(Cl)cccc3C(F)(F)F)noc2-c2ccccc2)cc1 [GV068]

IC50 [1, 3]: 53.5 µM
SMILES: O=C(O)c1ccc(NC(=O)c2c(-c3c(Cl)cccc3C(F)(F)F)noc2-c2ccccc2)cc1 [RD032]

IC50 [1, 3]: 73.9 µM
SMILES: O=C(O)c1cccc(NC(=O)c2c(-c3c(Cl)cccc3C(F)(F)F)noc2-c2ccccc2)c1 [RD061]

IC50 [1, 3]: 8.8 µM
SMILES: O=C(O)c1ccc(CNC(=O)c2c(-c3c(Cl)cccc3C(F)(F)F)noc2-c2ccccc2)cc1 [RD065]

IC50 [1, 3]: 91.1 µM
SMILES: O=C(O)c1ccc(NC(=O)c2c(-c3c(Cl)cccc3C(F)(F)F)noc2-c2ccccc2)cc1F [RD082]

IC50 [1, 3]: 1.1 µM
SMILES: O=C(O)c1ccc(NCc2c(-c3c(Cl)cccc3C(F)(F)F)noc2-c2ccco2)cc1 [RD149]

IC50 [1, 3]: 1.8 µM
SMILES: O=C(O)c1ccc(NCc2c(-c3c(Cl)cccc3C(F)(F)F)noc2-c2cccs2)cc1 [RD329]

IC50 [1, 3]: 6.6 µM
SMILES: O=C(O)c1ccc(NCc2c(-c3c(Cl)cccc3C(F)(F)F)noc2-c2cccc(O)c2)cc1 [RD369]
